The record followed here is patent US8263606B2 (Xenon Pharmaceuticals Inc., priority 2008, dated 2012).

The term IC50 denotes the concentration needed to halve the response being measured. The melting point is the temperature, or range, at which the solid turns liquid. In general, inhibition refers to how much of the control response was suppressed.

For one series, the system named is sodium channel. The series is described as follows: Guanidine influx assay (14C-guanidine radiotracer flux, in vitro). The series is classed as cell-based, human or rat. The following applies: guanidine influx assay using a known cell line that expresses a sodium channel. A digest of the protocol:
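Cells (human/rat Nav, endogenous or recombinant), ~100,000/well, 20-24 h 37 °C/5% CO2. Wash LNHBSS (150 mM choline Cl, HEPES, glucose). Add cpd + aconitine/14C-guanidine mix, RT. Wash, dry, scintillation count. IC50: 4-PL fit; selectivity as IC50 ratio vs reference channel, e.g. Nav1.5.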

The next series has as its target CYP3A4 (Homo sapiens, UniProt P08684). The series is described as follows: Cytochrome P450 (CYP450) Inhibition Assay, CYP3A4 (Vivid fluorescence, BOMCC substrate). Conditions: human, P450 Baculosomes (recombinant CYP3A4), probe BOMCC (Vivid substrate).

Sequence of CYP3A4 (P08684 whole entry): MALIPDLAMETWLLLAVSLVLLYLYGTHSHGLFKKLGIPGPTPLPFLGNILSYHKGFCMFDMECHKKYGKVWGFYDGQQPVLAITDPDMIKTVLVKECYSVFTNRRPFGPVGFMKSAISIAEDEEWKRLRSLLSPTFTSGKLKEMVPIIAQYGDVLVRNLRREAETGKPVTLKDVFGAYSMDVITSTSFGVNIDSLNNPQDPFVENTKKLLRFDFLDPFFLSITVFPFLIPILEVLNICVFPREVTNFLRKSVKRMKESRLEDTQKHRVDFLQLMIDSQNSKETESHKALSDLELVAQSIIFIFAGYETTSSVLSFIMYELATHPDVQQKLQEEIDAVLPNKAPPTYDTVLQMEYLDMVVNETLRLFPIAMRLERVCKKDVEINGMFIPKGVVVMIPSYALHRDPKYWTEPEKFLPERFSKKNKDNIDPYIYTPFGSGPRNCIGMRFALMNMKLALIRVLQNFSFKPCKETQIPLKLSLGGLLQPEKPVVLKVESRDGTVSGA

Turning to `CN(C)c1ccc(-c2cccc3c2C2(COc4cc5c(cc42)OCO5)C(=O)N3)cn1` (stereo not drawn) [Example 16.14, 4′-[6-(dimethylamino)pyridin-3-yl]spiro[furo[2,3-f][1,3]benzodioxole-7,3′-indol]-2′(1′H)-one], the melting point is more than 245 °C. In addition, the IC50 with sodium channel is 1000 to 10000 nM. Moreover, the inhibition at 10 µM on CYP3A4 was more than 50%.

As for `CN(C)c1ccc(-c2cccc3c2C2(COc4cc5c(cc42)OCCO5)C(=O)N3Cc2ccccn2)cn1` (stereo not drawn) [Example 16.59, 4′-(6-(dimethylamino)pyridin-3-yl)-1′-(pyridin-2-ylmethyl)-3,7-dihydro-2H-spiro[benzofuro[5,6-b][1,4]dioxine-8,3′-indolin]-2′-one], the melting point lay in the range of 187 to 188 °C. In addition, the IC50 in the series with sodium channel is 100 to 1000 nM. In addition, the inhibition at 10 µM at CYP3A4 is more than 50%.

`COc1ccc(-c2cccc3c2C2(COc4cc5c(cc42)OCCO5)C(=O)N3Cc2ccccn2)cc1` (stereo not drawn) [Example 16.60, 4′-(4-methoxyphenyl)-1′-(pyridin-2-ylmethyl)-3,7-dihydro-2H-spiro[benzofuro[5,6-b][1,4]dioxine-8,3′-indolin]-2′-one] registered a melting point of 205 to 206 °C. Moreover, the IC50 in the series with sodium channel was 1 to 100 nM. Further, the inhibition at 10 µM on CYP3A4 is more than 50%.

`CN1C(=O)[C@@]2(COc3cc4c(cc32)OCO4)c2c(-c3ccoc3)cccc21` [Example 16.61, (7S)-4′-furan-3-yl-1′-methylspiro[furo[2,3-f][1,3]benzodioxole-7,3′-indol]-2′(1′H)-one]: the melting point was 144 to 145 °C. Further, the IC50 in the series with sodium channel was in the range of 1 to 100 nM. Besides, the inhibition at 10 µM on CYP3A4 was more than 50%.

Molecule `CN1C(=O)[C@]2(COc3cc4c(cc32)OCO4)c2c(-c3ccoc3)cccc21` [Example 16.62, (7R)-4′-furan-3-yl-1′-methylspiro[furo[2,3-f][1,3]benzodioxole-7,3′-indol]-2′(1′H)-one] registered a melting point of 144 to 145 °C. Further, the IC50 with sodium channel was in the range of 100 to 1000 nM. In addition, the inhibition at 10 µM at CYP3A4 is more than 50%.

In turn, `COc1ccc(-c2ccc3c(c2)C2(CO3)C(=O)N(Cc3ccc(Cl)s3)c3ccccc32)cn1` (stereo not drawn) [Example 16.88, 1′-[(5-chloro-2-thienyl)methyl]-5-(6-methoxypyridin-3-yl)spiro[1-benzofuran-3,3′-indol]-2′(1′H)-one] returned a melting point of 60 to 62 °C. The IC50 in the series on sodium channel was 1000 to 10000 nM. The inhibition at 10 µM at CYP3A4 is more than 50%.

The molecule `O=C1N(Cc2ccc(O)cc2)c2ccccc2C12COc1cc3c(cc12)CCO3` (stereo not drawn) [Example 17, 1′-(4-hydroxybenzyl)-5,6-dihydrospiro[benzo[1,2-b:5,4-b′]difuran-3,3′-indol]-2′(1′H)-one] returned a melting point of 226 to 227 °C. The IC50 with sodium channel lay in the range of 1 to 100 nM. At CYP3A4, the inhibition at 10 µM was more than 50%.

`O=C1N(Cc2ccc(O)cc2)c2ccccc2C12COc1cc3c(cc12)OCCO3` (stereo not drawn) [Example 17.1, 1′-(4-hydroxybenzyl)-2,3-dihydrospiro[furo[2,3-g][1,4]benzodioxine-8,3′-indol]-2′(1′H)-one] came in with a melting point of 243 to 244 °C. Further, the IC50 with sodium channel lay within 1 to 100 nM. Further, the inhibition at 10 µM on CYP3A4 is more than 50%.

With `O=C1N(CCCO)c2ccccc2C12COc1cc3c(cc12)OCCO3` (stereo not drawn) [Example 17.2, 1′-(3-hydroxypropyl)-2,3-dihydrospiro[furo[2,3-g][1,4]benzodioxine-8,3′-indol]-2′(1′H)-one], the melting point was in the range of 157 to 158 °C. In the series with sodium channel, the IC50 is 1 to 100 nM. The inhibition at 10 µM at CYP3A4 was less than 50%.

For the molecule `CCOC(=O)N1C(=O)C2(COc3cc4c(cc32)OCCO4)c2ccccc21` (stereo not drawn) [Example 18, ethyl 2′-oxo-2,3-dihydrospiro[furo[2,3-g][1,4]benzodioxine-8,3′-indole]-1′(2′H)-carboxylate], the melting point is 198 to 200 °C. The IC50 with sodium channel was in the range of 1 to 100 nM. At CYP3A4, the inhibition at 10 µM was less than 50%.

In turn, `CC(C)(C)OC(=O)N1C(=O)C2(COc3cc4c(cc32)OCO4)c2c(Br)cccc21` (stereo not drawn) [Example 18.1, tert-butyl 4′-bromo-2′-oxospiro[furo[2,3-f][1,3]benzodioxole-7,3′-indole]-1′(2′H)-carboxylate] yielded a melting point of 154 to 156 °C. Besides, the IC50 in the series with sodium channel was 1 to 100 nM. Moreover, the inhibition at 10 µM at CYP3A4 is more than 50%.

`CC(C)(C)OC(=O)N1C(=O)C2(COc3cc4c(cc32)OCCO4)c2ccccc21` (stereo not drawn) [Example 18.2, tert-butyl 2′-oxo-2,3-dihydrospiro[furo[2,3-g][1,4]benzodioxine-8,3′-indole]-1′(2′H)-carboxylate] had a melting point of 171 to 172 °C. Also, the IC50 in the series on sodium channel is 100 to 1000 nM. In addition, the inhibition at 10 µM on CYP3A4 is less than 50%.

In turn, `CC1(C)O[C@H]2[C@@H](O1)[C@@H](CN1C(=O)C3(COc4cc5c(cc43)OCCO5)c3ccccc31)O[C@@H]1OC(C)(C)O[C@@H]12` (stereo partly drawn) [Example 19, 1′-{[(3aR,5R,5aS,8aS,8bR)-2,2,7,7-tetramethyltetrahydro-3aH-bis[1,3]dioxolo[4,5-b:4′,5′-d]pyran-5-yl]methyl}-2,3-dihydrospiro[furo[2,3-g][1,4]benzodioxine-8,3′-indol]-2′(1′H)-one] showed a melting point of 112 to 118 °C. Further, in the series with sodium channel, the IC50 was 1000 to 10000 nM. Besides, on CYP3A4, the inhibition at 10 µM was less than 50%.

Consider `O=C1N(C[C@H]2OC(O)[C@H](O)[C@@H](O)[C@H]2O)c2ccccc2C12COc1cc3c(cc12)OCCO3` (stereo partly drawn) [Example 20, 6-deoxy-6-(2′-oxo-2,3-dihydrospiro[furo[2,3-g][1,4]benzodioxine-8,3′-indol]-1′(2′H)-yl)-D-galactopyranose], for which the melting point lay within 122 to 126 °C. Moreover, the IC50 in the series with sodium channel is 1000 to 10000 nM. The inhibition at 10 µM at CYP3A4 was less than 50%.

The molecule `O=C1N(C2CC2)c2ccccc2C12COc1cc3c(cc12)OCCO3` (stereo not drawn) [Example 21, 1′-cyclopropyl-2,3-dihydrospiro[furo[2,3-g][1,4]benzodioxine-8,3′-indol]-2′(1′H)-one] yielded a melting point of 227 to 228 °C. Moreover, in the series with sodium channel, the IC50 fell in the range of 1 to 100 nM. In addition, at CYP3A4, the inhibition at 10 µM is less than 50%.

`CC(=O)N1C(=O)C2(COc3cc4c(cc32)OCCO4)c2ccccc21` (stereo not drawn) [Example 22, 1′-acetyl-2,3-dihydrospiro[furo[2,3-g][1,4]benzodioxine-8,3′-indol]-2′(1′H)-one]: the melting point is 236 to 238 °C. Moreover, the IC50 in the series with sodium channel lay in the range of 1 to 100 nM. Besides, the inhibition at 10 µM on CYP3A4 is less than 50%.

The molecule `O=C1N(Cc2cc(C(F)(F)F)ccn2)c2ccccc2C12COc1cc3c(cc12)OCCO3` (stereo not drawn) [Example 23, 1′-{[4-(trifluoromethyl)pyridin-2-yl]methyl}-2,3-dihydrospiro[furo[2,3-g][1,4]benzodioxine-8,3′-indol]-2′(1′H)-one] showed a melting point of 154 to 155 °C. Moreover, in the series on sodium channel, the IC50 is 1 to 100 nM. Moreover, the inhibition at 10 µM on CYP3A4 was less than 50%.

`Cc1noc(-c2cccc(CN3C(=O)C4(COc5cc6c(cc54)OCCO6)c4ccccc43)c2)n1` (stereo not drawn) [Example 28, 1′-[3-(3-methyl-1,2,4-oxadiazol-5-yl)benzyl]-2,3-dihydrospiro[furo[2,3-g][1,4]benzodioxine-8,3′-indol]-2′(1′H)-one] yielded a melting point of 80 to 89 °C. Also, the IC50 in the series with sodium channel fell in the range of 1 to 100 nM. In addition, the inhibition at 10 µM on CYP3A4 is less than 50%.

Molecule `Cc1noc(-c2ccc(CN3C(=O)C4(COc5cc6c(cc54)OCCO6)c4ccccc43)cc2)n1` (stereo not drawn) [Example 30, 1′-[4(3-methyl-1,2,4-oxadiazol-5-yl)benzyl]-2,3-dihydrospiro[furo[2,3-g][1,4]benzodioxine-8,3′-indol]-2′(1′H)-one] came in with a melting point of 177 to 178 °C. The IC50 in the series on sodium channel is 1 to 100 nM. For the same molecule, the inhibition at 10 µM on CYP3A4 is less than 50%.

Take `NC(=O)c1ccc2c(c1)C1(COc3cc4c(cc31)OCCO4)C(=O)N2Cc1ccccn1` (stereo not drawn) [Example 31, 2′-oxo-1′-(pyridin-2-ylmethyl)-1′,2,2′,3-tetrahydrospiro[furo[2,3-g][1,4]benzodioxine-8,3′-indole]-5′-carboxamide]: the melting point fell in the range of 220 to 222 °C. In the series on sodium channel, the IC50 is 100 to 1000 nM. Also, at CYP3A4, the inhibition at 10 µM was less than 50%.

On to `O=C1N(Cc2ccc(N3CCOCC3)nc2)c2ccccc2C12COc1cc3c(cc12)OCCO3` (stereo not drawn) [Example 32, 1′-[(6-morpholin-4-ylpyridin-3-yl)methyl]-2,3-dihydrospiro[furo[2,3-g][1,4]benzodioxine-8,3′-indol]-2′(1′H)-one], for which the melting point was 117 to 119 °C. The IC50 with sodium channel was in the range of 1 to 100 nM. The inhibition at 10 µM at CYP3A4 is more than 50%.

`CN(C)c1ccc(CN2C(=O)C3(COc4cc5c(cc43)OCCO5)c3ccccc32)cn1` (stereo not drawn) [Example 32.1, 1′-{[6-(dimethylamino)pyridin-3-yl]methyl}-2,3-dihydrospiro[furo[2,3-g][1,4]benzodioxine-8,3′-indol]-2′(1′H)-one] came in with a melting point of 93 to 95 °C. The IC50 in the series with sodium channel lay in the range of 1 to 100 nM. The inhibition at 10 µM on CYP3A4 was less than 50%.

The molecule `CN(C)c1cccc(CN2C(=O)C3(COc4cc5c(cc43)OCCO5)c3ccccc32)n1` (stereo not drawn) [Example 32.2, 1-{[6-(dimethylamino)pyridin-2-yl]methyl}-2,3-dihydrospiro[furo[2,3-g][1,4]benzodioxine-8,3′-indol]-2′(1′H)-one] returned a melting point of 196 to 197 °C. The IC50 with sodium channel was 1 to 100 nM. Moreover, at CYP3A4, the inhibition at 10 µM was more than 50%.

In the case of `O=C1N(Cc2ccc(N3CCOCC3)cn2)c2ccccc2C12COc1cc3c(cc12)OCCO3` (stereo not drawn) [Example 33.3, 1′-[(5-morpholin-4-ylpyridin-2-yl)methyl]-2,3-dihydrospiro[furo[2,3-g][1,4]benzodioxine-8,3′-indol]-2′(1′H)-one], the melting point was in the range of 204 to 206 °C. Besides, the concentration for half-maximal inhibition (IC50) with sodium channel lay in the range of 100 to 1000 nM. For the same molecule, the inhibition at 10 µM on CYP3A4 was less than 50%.
